# Measurements: PMC6470885 (Molecules, 2019)
# “And” between values parts separate entries of the source, which are not always exact repeats. Identical values can stand only once. Non-standard residues stand in square brackets, D forms with d. Residues, ends and D or L forms follow the SMILES beside them. *: point of attachment. Palmitoyl = CCCCCCCCCCCCCCCC(=O)*; PEG4 = NCCOCCOCCOCCOCCC(=O)O
# How the values were obtained:
# MT-2 cells = experiment: Cytotoxicity, CCK8 assay, MT-2 cells
# Protocol: (§1) A peptide at graded concentration was incubated with 2 × 10^5/mL cells at 37 °C for 3 days before adding 10 μL of CCK8 reagent (Sigma-Aldrich). After another round of incubation at 37 °C for 2 h, A450 was measured with the Multi-Detection Microplate Reader. Cell viability was calculated by […].
# M7 cells = experiment: Cytotoxicity, CCK8 assay, M7 cells
# Protocol: as §1
# [1] = test system: HIV-1 HP23-resistant strains; conditions: ratio of IC50s
# Protocol: (§3) For each well of a 96-well plate, 50 μL of a peptide were mixed with 50 μL of 100 × TCID50 (50% tissue culture infective doses) of HIV-1 live virus and incubated at 37 °C for 30 min. Afterwards, 2 × 10^4 MT-2 (for X4 virus) or CEMx174 5.25 M7 cells (for R5 virus) were added. After overnight culture, the supernatant was replaced with fresh RPMI-1640 medium containing 10% fetal bovine serum (FBS). After further culture at 37 °C for three days, 50 μL of the culture medium were collected and mixed with equal volume of 5% (v/v) Triton X-100. The p24 antigen, which represents HIV-1 quantity, was detected by ELISA. Briefly, the collected mixtures were added to a plate coated with anti-HIV Immune Globulin (HIVIG) from the NIH AIDS Reagent Program. Anti-p24 mAb 183, rabbit anti-mouse IgG-HRP (Dako, Glostrup, Denmark) and substrate 3,3,5,5-TMB (Sigma-Aldrich, New York, NY) were added and washed away sequentially. The absorbance at 450 nm (A450) was determined by a Multi-Detection Microplate Reader (Ultra 384, Tecan, Tokyo, Japan). IC50s were calculated using Calcusyn software (Biosoft, Ferguson, MO), and the lines of best fit were drawn using GraphPad Prism 8 software (La Jolla, CA).
# HIV-1IIIB = experiment: Ex vivo anti-HIV-1 activity of sera of peptide-treated mice; format: in vivo; conditions: ICR mice, 5 mg/kg i.p.; serum tested against HIV-1IIIB
# Protocol: (§2) Evaluation of ex vivo anti-HIV-1 activity of a peptide in a mouse model was performed as described recently. This mouse experiment was conducted under ethical guidelines and approved by the Institutional Laboratory Animal Care and Use Committee at Fudan University (20160927-2). ICR mice used for this study were bred at the Department of Laboratory Animal Science of Fudan University. Briefly, 5 mg/kg of a peptide were intraperitoneally (i.p.) injected into four female ICR mice (8 weeks). […] Anti-HIV-1 activities of the mouse serum samples were determined in the same way as described above. The highest dilution-fold of the serum causing 50% inhibition of HIV-1IIIB infection (IC50) was calculated.
# HIV-1Bal (R5 virus) = format: cell-based; conditions: ratio of IC50s
# Protocol: (§4) Inhibitory activities of peptides on infection by HIV-1 X4 strain IIIB, R5 strain Bal, and T20-, T2635-, HP23-resistant strains were determined as previously described [42]. For each well of a 96-well plate, 50 μL of a peptide were mixed with 50 μL of 100 × TCID50 (50% tissue culture infective doses) of HIV-1 live virus and incubated at 37 °C for 30 min. Afterwards, 2 × 10^4 MT-2 (for X4 virus) or CEMx174 5.25 M7 cells (for R5 virus) were added. After overnight culture, the supernatant was replaced with fresh RPMI-1640 medium containing 10% fetal bovine serum (FBS). After further culture at 37 °C for three days, 50 μL of the culture medium were collected and mixed with equal volume of 5% (v/v) Triton X-100. The p24 antigen, which represents HIV-1 quantity, was detected by ELISA. Briefly, the collected mixtures were added to a plate coated with anti-HIV Immune Globulin (HIVIG) from the NIH AIDS Reagent Program. Anti-p24 mAb 183, rabbit anti-mouse IgG-HRP (Dako, Glostrup, Denmark) and substrate 3,3,5,5-TMB (Sigma-Aldrich, New York, NY) were added and washed away sequentially. The absorbance at 450 nm (A450) was determined by a Multi-Detection Microplate Reader (Ultra 384, Tecan, Tokyo, Japan). IC50s were calculated using Calcusyn software (Biosoft, Ferguson, MO), and the lines of best fit were drawn using GraphPad Prism 8 software (La Jolla, CA).
# [2] = test system: HIV-1 T20-resistant strains; conditions: ratio of IC50s
# Protocol: as §4
# [3] = Serum half-life and pharmacokinetic parameters in mice
# Protocol: as §2
# HIV-1IIIB (X4 virus) [4] = experiment: Virus wash and nonwash assay; format: cell-based; conditions: HIV-1IIIB incubated with peptide 4 °C 30 min, unbound peptide washed away, then MT-2 cells
# Protocol: To determine whether a peptide binds with the viral particle in order to execute its anti-HIV-1 activity, virus wash and nonwash assays were performed as previously described. Briefly, HIV-1IIIB (50 × TCID50) were incubated with a peptide at 4 °C for 30 min, followed by washes of the pretreated viral particles to remove the unbound peptide (control: without washes) before being added to 2 × 10^4 MT-2 cells. After culture at 37 °C overnight, the supernatant was replaced by fresh RPMI-1640 medium containing 10% FBS. The inhibitory activity of the virus-bound peptide in the wash group and free peptide in the nonwash group was determined as described above.
# [5] = test system: HIV-1 mutants resistant to T20, T2635, or HP23; format: cell-based; conditions: ratio of IC50s
# Protocol: as §3
# [6] = test system: HIV-1 T2635-resistant strains; conditions: ratio of IC50s
# Protocol: as §3
# HIV-1IIIB (X4 virus) [7] = format: cell-based; conditions: ratio of IC50s
# Protocol: as §4
# [8] = test system: cell-cell fusion between H9/IIIB cells and MT-2 cells; experiment: HIV-1-mediated cell-cell fusion (dye transfer assay); format: cell-based
# Protocol: A dye transfer assay was performed to detect HIV-1 Env-mediated cell-cell fusion as described previously. Briefly, for each well of a 96-well plate, 2 × 10^3 H9/IIIB cells labeled with the fluorescent reagent Calcein AM (Molecular Probes, Inc., Eugene, Oregon) were incubated with a CHR-peptide at 37 °C for 30 min. Afterwards, 10^4 MT-2 cells were added and incubated at 37 °C for 2 h. The fused and unfused Calcein-labeled H9/IIIB cells were counted under an inverted fluorescence microscope (Zeiss, Oberkochen, Germany). The IC50 values were calculated by using the Calcusyn computer program (Biosoft, Ferguson, MO).
# HIV-1 NL4-3 E49K = format: cell-based; conditions: HP23-resistant E49K; p24 ELISA; mean ± SD of three independent experiments
# Protocol: as §4
# [9] = test system: HIV-1 NL4-3 (D36G) N42T, N43K; format: cell-based; conditions: T20-resistant (D36G) N42T, p24 ELISA, mean ± SD of three independent experiments
# Protocol: as §4
# HIV-1 LAI K90E/N126K = format: cell-based; conditions: T2635-resistant K90E/N126K; p24 ELISA; mean ± SD of three independent experiments
# Protocol: as §4
# HIV-1IIIB (X4 virus) [10] = format: cell-based
# Protocol: To determine whether a peptide binds with the target cells in order to execute its anti-HIV-1 activity, cell wash and nonwash assays were performed as previously described. Briefly, 2 × 10^4 MT-2 cells were incubated with a peptide at 4 °C for 30 min, followed by washes of the pretreated cells to remove the unbound peptide (control: without washes) before addition of HIV-1IIIB (100 × TCID50). After culture at 37 °C overnight, the supernatant was replaced by fresh RPMI-1640 medium containing 10% FBS. The inhibitory activity of the cell-bound peptide in the wash group and free peptide in the nonwash group was determined as described above.
# [11] = test system: HIV-1 NL4-3 (D36G) V38A, N42T; format: cell-based; conditions: T20-resistant (D36G) V38A, p24 ELISA, mean ± SD of three independent experiments
# Protocol: as §4
# HIV-1 LAI A6V = format: cell-based; conditions: T2635-resistant A6V; p24 ELISA; mean ± SD of three independent experiments
# Protocol: as §4
# HIV-1 LAI K154Q = format: cell-based; conditions: T2635-resistant K154Q; p24 ELISA; mean ± SD of three independent experiments
# Protocol: as §4
# HIV-1 LAI (WT) = format: cell-based; conditions: p24 ELISA, mean ± SD of three independent experiments
# HIV-1 LAI Q66R = format: cell-based; conditions: T2635-resistant Q66R; p24 ELISA; mean ± SD of three independent experiments
# Protocol: as §4
# HIV-1 LAI Q79E/N126K = format: cell-based; conditions: T2635-resistant Q79E/N126K; p24 ELISA; mean ± SD of three independent experiments
# Protocol: as §4
# [12] = test system: HIV-1 NL4-3 L34S/D36G/E49K/E136G; format: cell-based; conditions: HP23-resistant L34S/D36G/E49K/E136G; p24 ELISA; mean ± SD of three independent experiments
# Protocol: as §4
# HIV-1 NL4-3 D36G (WT) = format: cell-based; conditions: p24 ELISA, mean ± SD of three independent experiments
# Protocol: as §4
# HIV-1 LAI K90E = format: cell-based; conditions: T2635-resistant K90E; p24 ELISA; mean ± SD of three independent experiments
# Protocol: as §4
# HIV-1 NL4-3 E49K/N126K = format: cell-based; conditions: HP23-resistant E49K/N126K; p24 ELISA; mean ± SD of three independent experiments
# Protocol: as §4
# HIV-1 NL4-3 (D36G) V38A = format: cell-based; conditions: T20-resistant (D36G) V38A; p24 ELISA; mean ± SD of three independent experiments
# Protocol: as §3
# HIV-1 NL4-3 (WT) = format: cell-based; conditions: p24 ELISA, mean ± SD of three independent experiments
# Protocol: as §4
# [13] = test system: HIV-1 NL4-3 (D36G) V38A, N42D; format: cell-based; conditions: T20-resistant (D36G) V38A, p24 ELISA, mean ± SD of three independent experiments
# Protocol: as §3
# [14] = test system: HIV-1 NL4-3 (D36G) V38E, N42S; format: cell-based; conditions: T20-resistant (D36G) V38E, p24 ELISA, mean ± SD of three independent experiments
# Protocol: as §4
# [15] = test system: HIV-1 NL4-3 D36G/E49K/N126K; format: cell-based; conditions: HP23-resistant D36G/E49K/N126K; p24 ELISA; mean ± SD of three independent experiments
# Protocol: as §4
# [16] = concentrations as high as 8 μM, 3 days, 37 °C, CCK8
# [17] = Mice (i.p., n = 3), 5 mg/kg, concentration estimated from serum anti-HIV-1 activity, MODFIT
compound,measurement,setting,value
CCCCCCCCCCCCCCCC(=O)NCCCC[C@H](NC(=O)CCOCCOCCOCCOCCNC(=O)CNC(=O)[C@H](CO)NC(=O)CNC(=O)[C@H](CC(C)C)NC(=O)[C@H](CC(=O)O)NC(=O)[C@@H](NC(=O)[C@H](CCC(N)=O)NC(=O)[C@H](CCC(N)=O)NC(=O)[C@H](CC(N)=O)NC(=O)[C@H](CCC(N)=O)NC(=O)[C@H](CO)NC(=O)[C@H](CCCCN)NC(=O)[C@H](CCCCN)NC(=O)[C@H](CC(C)C)NC(=O)[C@@H](NC(=O)[C@H](CCC(=O)O)NC(=O)[C@H](CCC(=O)O)NC(=O)[C@@H](NC(=O)[C@H](CCCCN)NC(=O)[C@H](CCCCN)NC(=O)[C@@H](NC(=O)[C@H](Cc1ccc(O)cc1)NC(=O)[C@H](CCC(=O)O)NC(=O)[C@H](CCC(=O)O)NC(=O)[C@@H](NC(=O)[C@H](CCCCN)NC(=O)[C@H](CCCCN)NC(=O)[C@H](CCC(=O)O)NC(=O)[C@H](Cc1c[nH]c2ccccc12)NC(=O)[C@H](CCC(=O)O)NC(=O)[C@H](CCC(=O)O)NC(=O)[C@H](Cc1c[nH]c2ccccc12)NC(=O)[C@@H](NC(=O)[C@H](CCSC)NC(=O)[C@@H](N)CCC(=O)O)[C@@H](C)O)[C@@H](C)CC)[C@@H](C)CC)[C@@H](C)CC)[C@@H](C)CC)[C@@H](C)CC)C(=O)O [YIK-C16] (H-EMTWEEWEKKIEEYIKKIEEILKKSQNQQIDLGSG[PEG4]K(Palmitoyl)-OH; N-terminus and C-terminus assumed),non-cytotoxic concentration (8 μM) relative to IC50 for inhibiting HIV-1IIIB infection,MT-2 cells; 8 μM versus IC50 against HIV-1IIIB,about 105 fold
same,in vitro cytotoxicity to MT-2 cells,MT-2 cells; [16],none of these peptides exhibited in vitro cytotoxicity
same,non-cytotoxic concentration (8 μM) relative to IC50 for inhibiting HIV-1Bal infection,M7 cells; 8 μM versus IC50 against HIV-1Bal,~131 fold
same,in vitro cytotoxicity to M7 cells,M7 cells; [16],none of these peptides exhibited in vitro cytotoxicity
same,fold more potent than HP23-E6-IDL for inhibiting infection by HIV-1 HP23-resistant strains,[1],~26 fold
same,maximum inhibitory activity of serum (fold of IC50; highest dilution-fold of serum causing 50% inhibition),HIV-1IIIB,about 4500 fold
same,serum inhibitory activity maintained for 15 h post-injection (fold of IC50),HIV-1IIIB,> 275 fold
same,time of maximum serum inhibitory activity post-injection,HIV-1IIIB,about 3 h
same,fold more effective than HP23-E6-IDL against HIV-1Bal infection,HIV-1Bal (R5 virus),13.3 fold and ~13 fold
same,fold more effective than YIK against HIV-1Bal infection,HIV-1Bal (R5 virus),10.5 fold
same,fold more potent than HP23-E6-IDL for inhibiting infection by HIV-1 T20-resistant strains,[2],about 12 fold
same,AUC0-15h,[3]; [17],14900 ± 3800 ng·h/mL
same,AUCINF_obs,[3]; [17],15000 ± 3700 ng·h/mL
same,Cl_F_obs/Cl_obs,[3]; [17],5.773 ± 1.27 mL/min/kg
same,Cmax,[3]; [17],2200 ± 100 ng/mL
same,MRTlast,[3]; [17],9.5 ± 5.1 h
same,Tmax,[3]; [17],4.0 ± 1.7 h
same,Vz_F_obs/Vz_obs,[3]; [17],2.7388 ± 0.7407 L/kg
same,t½,[3]; [17],5.9 ± 3.2 h
same,fold longer serum half-life than HP23-E6-IDL,"[3]; mice, i.p.",~5.9 fold
same,"inhibition of HIV-1IIIB infection, virus preincubated with peptide, washed",HIV-1IIIB (X4 virus) [4],could inhibit HIV-1IIIB infection when the unbound peptide was washed away
same,"fold more effective than HP23-E6-IDL against infection by HIV-1 mutants resistant to T20, T2635 and HP23",[5],about 16 fold
same,fold more potent than HP23-E6-IDL for inhibiting infection by HIV-1 T2635-resistant strains,[6],about 12 fold
same,fold more potent than YIK against HIV-1IIIB infection,HIV-1IIIB (X4 virus) [7],3.6 fold
same,potency relative to YIK and HP23-E6-IDL in inhibiting HIV-1-mediated cell-cell fusion,[8]; ratio of IC50s,about two-fold more potent
CC[C@H](C)[C@H](NC(=O)[C@H](CCC(N)=O)NC(=O)[C@H](CCC(N)=O)NC(=O)[C@H](CC(N)=O)NC(=O)[C@H](CCC(N)=O)NC(=O)[C@H](CO)NC(=O)[C@H](CCCCN)NC(=O)[C@H](CCCCN)NC(=O)[C@H](CC(C)C)NC(=O)[C@@H](NC(=O)[C@H](CCC(=O)O)NC(=O)[C@H](CCC(=O)O)NC(=O)[C@@H](NC(=O)[C@H](CCCCN)NC(=O)[C@H](CCCCN)NC(=O)[C@@H](NC(=O)[C@H](Cc1ccc(O)cc1)NC(=O)[C@H](CCC(=O)O)NC(=O)[C@H](CCC(=O)O)NC(=O)[C@@H](NC(=O)[C@H](CCCCN)NC(=O)[C@H](CCCCN)NC(=O)[C@H](CCC(=O)O)NC(=O)[C@H](Cc1c[nH]c2ccccc12)NC(=O)[C@H](CCC(=O)O)NC(=O)[C@H](CCC(=O)O)NC(=O)[C@H](Cc1c[nH]c2ccccc12)NC(=O)[C@@H](NC(=O)[C@H](CCSC)NC(=O)[C@@H](N)CCC(=O)O)[C@@H](C)O)[C@@H](C)CC)[C@@H](C)O)[C@@H](C)CC)[C@@H](C)CC)C(=O)N[C@@H](CC(=O)O)C(=O)N[C@@H](CC(C)C)C(=O)O [HP23-E6-IDL] (H-EMTWEEWEKKIEEYTKKIEEILKKSQNQQIDL-OH),IC50,HIV-1 NL4-3 E49K,2.04 ± 0.126 nM
same,IC50,[9],0.941 ± 0.019 nM
same,IC50,HIV-1 LAI K90E/N126K,0.842 ± 0.066 nM
same,IC50,HIV-1IIIB (X4 virus) [10],2.4 nM
same,IC50,[11],0.838 ± 0.031 nM
same,IC50,HIV-1 LAI A6V,0.349 ± 0.019 nM
same,IC50,HIV-1 LAI K154Q,1.25 ± 0.249 nM
same,IC50,HIV-1 LAI (WT),0.932 ± 0.059 nM
same,IC50,HIV-1 LAI Q66R,0.496 ± 0.168 nM
same,IC50,HIV-1 LAI Q79E/N126K,1.31 ± 0.059 nM
same,IC50,[12],4.94 ± 1.1 nM
same,IC50,HIV-1 NL4-3 D36G (WT),0.912 ± 0.029 nM
same,IC50,HIV-1 LAI K90E,1.42 ± 0.242 nM
same,IC50,HIV-1 NL4-3 E49K/N126K,2.56 ± 0.318 nM
same,IC50,HIV-1 NL4-3 (D36G) V38A,0.647 ± 0.024 nM
same,IC50,HIV-1 NL4-3 (WT),0.699 ± 0.025 nM
same,IC50,[13],1.54 ± 0.253 nM
same,IC50,[14],0.748 ± 0.012 nM
same,IC50,"[8]; Calcein AM dye transfer, peptide 37 °C 30 min, then MT-2 cells 2 h, read-out: IC50 against cell-cell fusion between H9/IIIB cells and MT-2 cells",1.14 nM
same,IC50,[15],3.14 ± 0.4 nM
